Assays:
HEL cells = experiment: Minimum cytotoxic concentration, alteration of cell morphology in HEL cells; assay type: cell-based, human; details: for Minimum cytotoxic concentration (HEL): Table 2, microscopically detectable alteration of cell morphology; for Minimum cytotoxic concentration (MCC) (HEL): Table 1, microscopically detectable alteration of normal cell morphology
TK+ VZV strain YS = experiment: Plaque reduction, TK+ VZV strain YS in HEL cells; assay type: cell-based, varicella-zoster virus; details: Human alphaherpesvirus 3, HEL, read-out: EC50 TK+ VZV strains YS
HIV-1 = details: cited from earlier work

EC50 (TK+ VZV strain YS) [nM]	SMILES	Minimum cytotoxic concentration (HEL) (HEL cells)	Minimum cytotoxic concentration (MCC) (HEL) (HEL cells) [µM]	activity against HIV-1 in PBM cells (HIV-1) [µM]
–	Nc1nc2c(ncn2COCCO)c(=O)[nH]1 [Acyclovir, reference compound]	>400 µM	–	–
11	O=c1[nH]c(=O)n([C@H]2C[C@H](O)[C@@H](CO)O2)cc1/C=C/Br [Brivudin, reference compound]	⩾300 μM	–	–
–	C[C@H](NP(=O)(OC[C@H]1O[C@@H](n2cc(I)c(=O)[nH]c2=O)C(F)(F)[C@@H]1O)Oc1ccccc1)C(=O)OCc1ccccc1 (stereo partly drawn) [Compound 16, 2′-Deoxy-2′,2′-difluoro-D-5-iodouridine 5′-O-phenyl-(benzoxy-alaninyl)-phosphate]	–	>100	–
–	COC(=O)[C@H](C)NP(=O)(OC[C@H]1O[C@@H](n2cc(I)c(=O)[nH]c2=O)C(F)(F)[C@@H]1O)Oc1ccccc1 (stereo partly drawn) [Compound 17, 2′-Deoxy-2′,2′-difluoro-D-5-iodouridine 5′-O-phenyl-(methoxy-alaninyl)-phosphate]	>50 µM	>100	–
–	C[C@H](NP(=O)(OC[C@H]1O[C@@H](n2cc(Br)c(=O)[nH]c2=O)C(F)(F)[C@@H]1O)Oc1ccccc1)C(=O)OCc1ccccc1 (stereo partly drawn) [Compound 20, 2′-Deoxy-2′,2′-difluoro-D-5-bromouridine 5′-O-phenyl-(benzoxy-alaninyl)-phosphate]	>50 µM	>100	–
–	C[C@H](NP(=O)(OC[C@H]1O[C@@H](n2cc(Cl)c(=O)[nH]c2=O)C(F)(F)[C@@H]1O)Oc1ccccc1)C(=O)OCc1ccccc1 (stereo partly drawn) [Compound 21, 2′-Deoxy-2′,2′-difluoro-D-5-chlorouridine 5′-O-phenyl-(benzoxy-alaninyl)-phosphate]	>50 µM	>100	–
–	Nc1nc(O)c2ncn(COC(CO)CO)c2n1 [Ganciclovir, reference compound]	–	>100	–
–	Nc1ncnc2c1ncn2C1OC(CO)C(O)C1(F)F (stereo not drawn) [adenine derivative]	–	–	3.4

From article PMC7127735 (Bioorganic & Medicinal Chemistry, 2011)
